Reference: ChEMBL document CHEMBL5360558, “Molecular design, synthesis and anticancer activity of new thiopyrano[2,3-d]thiazoles based on 5-hydroxy-1,4-naphthoquinone (juglone)” (Eur J Med Chem, 2023)

Key:
[1] = system: PC-3; experiment: Growth inhibition against human PC-3 cells assessed as lethal concentration incubated for 48 hrs by sulforhodamine B spectrophotometric assay; assay type: functional; conditions: read-out: LC50 (the source's name)
[2] = system: NCI-H322M; experiment: Growth inhibition against human NCI-H322M cells assessed as total growth inhibitory concentration incubated for 48 hrs by sulforhodamine B spectrophotometric assay; assay type: functional
[3] = system: CCRF-CEM; experiment: Induction of cell cycle arrest in human CCRF-CEM cells assessed as RNA synthesis at 20.7 uM incubated for 3 hrs by […] incorporation based flow cytometry analysis (reference value: 31.8 +/- 1.17%); assay type: functional
[4] = Acute toxicity in C57BL/6 mouse assessed as change in red blood cells at 20 mg/kg,ip administration observed after 22 days; assay type: organism-based; conditions: in vivo, 528 h, time 22 day
[5] = system: CAKI-1; experiment: Growth inhibition of human CAKI-1 cells incubated for 48 hrs by sulforhodamine B spectrophotometric assay; assay type: functional
[6] = system: CAKI-1; experiment: Growth inhibition against human CAKI-1 cells assessed as lethal concentration incubated for 48 hrs by sulforhodamine B spectrophotometric assay; assay type: functional; conditions: read-out: LC50 (the source's name)
[7] = system: SR; experiment: Growth inhibition of human SR cells incubated for 48 hrs by sulforhodamine B spectrophotometric assay; assay type: functional
[8] = system: TK-10; experiment: Growth inhibition of human TK-10 cells incubated for 48 hrs by sulforhodamine B spectrophotometric assay; assay type: functional
[9] = Acute toxicity in C57BL/6 mouse assessed as neutrophil count at 20 mg/kg,ip administration and observed after 22 days; assay type: organism-based; conditions: in vivo, 528 h, time 22 day
[10] = system: SW-620; experiment: Growth inhibition of human SW620 cells incubated for 48 hrs by sulforhodamine B spectrophotometric assay; assay type: functional
[11] = system: SK-MEL-5; experiment: Growth inhibition of human SK-MEL-5 cells incubated for 48 hrs by sulforhodamine B spectrophotometric assay; assay type: functional
[12] = system: SR; experiment: Growth inhibition against human SR cells assessed as total growth inhibitory concentration incubated for 48 hrs by sulforhodamine B spectrophotometric assay; assay type: functional
[13] = system: MDA-MB-231; experiment: Induction of apoptosis in human MDA-MB-231 cells assessed as increase in caspase-9 level at 10 uM incubated for 24 hrs by flow cytometry analysis; assay type: functional
[14] = system: T47D; experiment: Growth inhibition against human T47D cells assessed as lethal concentration incubated for 48 hrs by sulforhodamine B spectrophotometric assay; assay type: functional; conditions: read-out: LC50 (the source's name)
[15] = system: SNB-19; experiment: Growth inhibition of human SNB-19 cells incubated for 48 hrs by sulforhodamine B spectrophotometric assay; assay type: functional
[16] = system: CCRF-CEM; experiment: Induction of cell cycle arrest in human CCRF-CEM cells assessed as accumulation of cells at G2/M phase at 20.7 uM incubated for 24 hrs by propidium iodide staining based flow cytometry analysis (reference value: 20.24 +/- 0.25%); assay type: functional
[17] = Cytotoxicity against human HCT116-p53-null cells assessed as cell growth inhibition incubated for 72 hrs by MTT assay; assay type: functional, cell-based
[18] = system: HT-29; experiment: Growth inhibition against human HT-29 cells assessed as lethal concentration incubated for 48 hrs by sulforhodamine B spectrophotometric assay; assay type: functional; conditions: read-out: LC50 (the source's name)
[19] = system: SF-295; experiment: Growth inhibition against human SF-295 cells assessed as lethal concentration incubated for 48 hrs by sulforhodamine B spectrophotometric assay; assay type: functional; conditions: read-out: LC50 (the source's name)
[20] = system: HCT-116; experiment: Growth inhibition against human HCT-116 cells assessed as lethal concentration incubated for 48 hrs by sulforhodamine B spectrophotometric assay; assay type: functional; conditions: read-out: LC50 (the source's name)
[21] = system: RPMI-8226; experiment: Growth inhibition of human RPMI-8226 cells incubated for 48 hrs by sulforhodamine B spectrophotometric assay; assay type: functional
[22] = system: OVCAR-4; experiment: Growth inhibition against human OVCAR-4 cells assessed as total growth inhibitory concentration incubated for 48 hrs by sulforhodamine B spectrophotometric assay; assay type: functional
[23] = Acute toxicity in C57BL/6 mouse assessed as change in hemoglobin level at 20 mg/kg,ip administration observed after 22 days; assay type: organism-based; conditions: in vivo, 528 h, time 22 day
[24] = system: A498; experiment: Growth inhibition against human A498 cells assessed as lethal concentration incubated for 48 hrs by sulforhodamine B spectrophotometric assay; assay type: functional; conditions: read-out: LC50 (the source's name)
[25] = system: ACHN; experiment: Growth inhibition against human ACHN cells assessed as lethal concentration incubated for 48 hrs by sulforhodamine B spectrophotometric assay; assay type: functional; conditions: read-out: LC50 (the source's name)
[26] = system: UO-31; experiment: Growth inhibition against human UO-31 cells assessed as total growth inhibitory concentration incubated for 48 hrs by sulforhodamine B spectrophotometric assay; assay type: functional
[27] = Cytotoxicity against mouse J774.2 cells assessed as cell growth inhibition incubated for 72 hrs by MTT assay; assay type: toxicity, cell-based

O=C1C2=C(C(=O)c3c(O)cccc31)C(c1ccco1)c1sc(=O)[nH]c1S2 (configuration not stated)
CC50 [1]: > 100 µM | TGI [2]: 3.13 µM | Activity [3]: 0.07% | Activity [4]: Non-Toxic | GI50 [5]: 3.29 µM | CC50 [6]: 37.3 µM | GI50 [7]: 3.05 µM | GI50 [8]: 12.3 µM | Activity [9]: 31.21% | GI50 [10]: 3.28 µM | GI50 [11]: 1.59 µM | TGI [12]: 69.5 µM | Activity [13]: 32.6% | CC50 [14]: > 100 µM | GI50 [15]: 2.6 µM | Activity [16]: 22.09% | IC50 [17]: 2.37 µM | CC50 [18]: > 100 µM | CC50 [19]: 6.5 µM | CC50 [20]: > 100 µM | GI50 [21]: 2.62 µM | TGI [22]: 3.95 µM | Activity [23]: Non-Toxic | CC50 [24]: 31.6 µM | CC50 [25]: 40.1 µM | TGI [26]: 13.5 µM | IC50 at 72 h [27]: 2.59 µM
